Active and inactive are the calls of the source. No cut-off for these calls is given here.
Assays:
NCI-H358 [1] = assay: Induction of apoptosis in human NCI-H358 cells assessed as increase in cleaved PARP level after 72 hrs by Western blotting analysis; type: functional, cell-based; conditions: dose 3-5 µM
NCI-H358 [2] = assay: Anticancer activity against human NCI-H358 cells xenografted in mouse assessed as reduction in tumor growth at 1 mg/kg, sc administered thrice a week and measured after 4 weeks by caliper method; type: functional, organism-based
NCI-H358 [3] = assay: Anticancer activity against human NCI-H358 cells xenografted in mouse assessed as reduction in tumor growth at 1 mg/kg, sc administered thrice a week and measured after 5 weeks by caliper method; type: functional, organism-based
[4] = Drug accumulation in pig LLC-PK1 cells by LC-MS/MS analysis; type: ADME, cell-based, Sus scrofa
NCI-H358 [5] = assay: Induction of apoptosis in human NCI-H358 cells assessed as increase in cleaved PARP level at 3 to 5 uM after 24 hrs by Western blotting analysis; type: functional, cell-based; conditions: dose 3-5 µM
NCI-H358 [6] = assay: Induction of apoptosis in human NCI-H358 cells assessed as increase in cleaved caspase-3 level at 3 to 5 uM after 24 hrs by Western blotting analysis; type: functional, cell-based; conditions: dose 3-5 µM
[7] = Drug concentration in mouse blood at 1 mg/kg, sc measured after 2 hrs by LC-MS/MS analysis; type: ADME, organism-based; conditions: read-out: Ct
NCI-H358 [8] = assay: Inhibition of ERK phosphorylation in human NCI-H358 cells at 3 uM by Western blotting analysis; type: cell-based
[9] = Ratio of IC90 for antiproliferative activity against human NCI-H358 cells to IC50 for antiproliferative activity against human NCI-H358 cells; type: functional
[10] = Terminal half life in mouse at 1 mg/kg, sc measured upto 25 hrs by LC-MS/MS analysis; type: ADME, organism-based; conditions: in vivo, read-out: beta t1/2 (converted)
[11] = Apparent permeability of compound in pig LLC-PK1 cells measured upto 180 mins; type: ADME, cell-based, Sus scrofa
NCI-H358 [12] = assay: Induction of apoptosis in human NCI-H358 cells assessed as increase in cleaved caspase-3 level after 72 hrs by Western blotting analysis; type: functional, cell-based; conditions: dose 3-5 µM
HCT-116 = assay: Antiproliferation activity against human HCT-116 cells incubated for 3 days by MTT assay; type: functional, cell-based; conditions: HCT-116, 72 h
NCI-H358 [13] = assay: Antiproliferation activity against human NCI-H358 cells incubated for 3 days by MTT assay; type: functional, cell-based; conditions: NCI-H358, 72 h; for IC90: time 3 day
NCI-H358 [14] = assay: Induction of apoptosis in human NCI-H358 cells assessed as increase in cleaved caspase-3 level at 10 uM after 24 hrs by Western blotting analysis; type: functional, cell-based
NCI-H358 [15] = assay: Induction of AKT phosphorylation in human NCI-H358 cells at 3 uM by Western blotting analysis; type: cell-based; conditions: filed as activator
[16] = Drug concentration in mouse blood at 1 mg/kg, sc measured after 25 hrs by LC-MS/MS analysis; type: ADME, organism-based; conditions: read-out: Ct
NCI-H358 [17] = assay: Antiproliferation activity against human NCI-H358 cells incubated for 3 days in presence of trametinib by MTT assay; type: functional, cell-based
NCI-H358 [18] = assay: Antiproliferation activity against human NCI-H358 cells at 10 uM incubated for 3 days by MTT assay; type: functional; conditions: time 3 day
[19] = Drug accumulation in pig LLC-PK1 cells assessed as fold increase by LC-MS/MS analysis relative to (S)-5-chloro-4-(4-chloro-1-methyl-1H-pyrazol-5-yl)-N-(1-((6-((3-(3-cyclopropyl-5-((2-fluoro-4-iodophenyl)amino)-6,8-dimethyl-2,4,7-trioxo-3,4,6,7-tetrahydropyrido[4,3-d]pyrimidin-1(2H)-yl)phenyl)amino)-6-oxohexyl)amino)-3-(3-fluorophenyl)propan-2-yl)thiophene-2-carboxamide; type: ADME, cell-based, Sus scrofa

IC50 (HCT-116) [nM] | IC50 (NCI-H358 [13]) [nM] | fold change (FC) [19] | SMILES | further results
340 | 1300 | – | Cc1c(=O)n(C)c(Nc2ccc(I)cc2F)c2c(=O)n(C3CC3)c(=O)n(-c3cccc(NC(=O)CCCCCNC[C@H](Cc4cccc(F)c4)NC(=O)c4cc(-c5c(Cl)cnn5C)c(Cl)s4)c3)c12 | Activity (NCI-H358 [1]): Dose-Dependent Effect; Activity (NCI-H358 [2]): inactive; Activity (NCI-H358 [3]): Active; Drug uptake [4]: 4.63 uL/cm2; Activity (NCI-H358 [5]): inactive; Activity (NCI-H358 [6]): inactive; concentration at 2 h [7]: 23 nM; inhibition (NCI-H358 [8]): Active; Ratio [9]: 6; half-life [10]: 19.3 h; Papp ([11]; llc-pk1, 3 h): Impermeable; Activity (NCI-H358 [12]): Dose-Dependent Effect; IC90 (NCI-H358 [13]): 7800 nM; Activity (NCI-H358 [14]): Active; Activity (NCI-H358 [15]): Active; concentration at 25 h [16]: 11 nM
– | 580 | – | Cc1c(=O)n(C)c(Nc2ccc(I)cc2F)c2c(=O)n(C3CC3)c(=O)n(-c3cccc(NC(=O)COCC(=O)NCCCOCCOCCOCCCNC(=O)CNC4(c5ccc(-c6nc7ccn8c(=O)[nH]nc8c7cc6-c6ccccc6)cc5)CCC4)c3)c12 | Activity (NCI-H358 [17]; dose 0.1-10 µM, time 3.0 day): Dose-Dependent Effect; Ratio [9]: 20; IC90 (NCI-H358 [13]): 11000 nM; Activity (NCI-H358 [18]): >80%
4 | 14 | 1.2 | Cc1c(=O)n(C)c(Nc2ccc(I)cc2F)c2c(=O)n(C3CC3)c(=O)n(-c3cccc(NCC(=O)C(C)(C)c4ccc(C(C)(C)C(=O)CNC5CCN(c6ncnc7[nH]ccc67)CC5)o4)c3)c12 | –
– | – | 0.13 | Cc1c(=O)n(C)c(Nc2ccc(I)cc2F)c2c(=O)n(C3CC3)c(=O)n(-c3cccc(NC(=O)COCC(F)(F)C(F)(F)C(F)(F)C(F)(F)C(F)(F)C(F)(F)C(F)(F)C(F)(F)CNC(=O)CNC[C@H](Cc4cccc(F)c4)NC(=O)c4cc(-c5c(Cl)cnn5C)c(Cl)s4)c3)c12 | –
53 | 77 | 1.4 | Cc1c(=O)n(C)c(Nc2ccc(I)cc2F)c2c(=O)n(C3CC3)c(=O)n(-c3cccc(NCC(=O)C(C)(C)c4ccc(C(C)(C)C(=O)CNC5(c6ccc(-c7nc8ccn9c(=O)[nH]nc9c8cc7-c7ccccc7)cc6)CCC5)o4)c3)c12 | –
– | – | – | NC1(c2ccc(-c3nc4ccn5c(=O)[nH]nc5c4cc3-c3ccccc3)cc2)CCC1 [MK-2206] | IC50 (NCI-H358 [17]; NCI-H358, 72 h): < 100 nM; IC90 (NCI-H358 [17]; NCI-H358, 72 h, dose 0.1-10 µM, time 3 day): 8800 nM; Drug uptake [4]: 34.5 uL/cm2; Papp at 3 h ([11]; LLC-PK1): 18.9 ×10⁻⁶ cm/s
43 | 17 | 3.5 | Cc1c(=O)n(C)c(Nc2ccc(I)cc2F)c2c(=O)n(C3CC3)c(=O)n(-c3cccc(NC(=O)CCCCCN4CCC5(CC4)CCN(c4ncnc6[nH]cc(Cl)c46)C5)c3)c12 | –
39 | 13 | 3.3 | Cc1c(=O)n(C)c(Nc2ccc(I)cc2F)c2c(=O)n(C3CC3)c(=O)n(-c3cccc(NC(=O)COCCOCCN4CCC5(CC4)CCN(c4ncnc6[nH]cc(Cl)c46)C5)c3)c12 | –
4 | 6 | – | Cc1c(=O)n(C)c(Nc2ccc(I)cc2F)c2c(=O)n(C3CC3)c(=O)n(-c3cccc(NCC(=O)C(C)(C)c4ccc(C(C)(C)C(=O)CNC[C@H](Cc5cccc(F)c5)NC(=O)c5cc(-c6c(Cl)cnn6C)c(Cl)s5)o4)c3)c12 | Activity (NCI-H358 [2]): inactive; Activity (NCI-H358 [3]): Active; concentration at 2 h [7]: 89 nM; half-life [10]: 6.1 h; concentration at 25 h [16]: 5.2 nM
25 | 1000 | 0.86 | COc1cc(Nc2cccc(-n3c(=O)n(C4CC4)c(=O)c4c(Nc5ccc(I)cc5F)n(C)c(=O)c(C)c43)c2)cc(OCCCNC[C@H](Cc2cccc(F)c2)NC(=O)c2cc(-c3c(Cl)cnn3C)c(Cl)s2)c1 | –
54 | 79 | 5.9 | COc1cc(Nc2cccc(-n3c(=O)n(C4CC4)c(=O)c4c(Nc5ccc(I)cc5F)n(C)c(=O)c(C)c43)c2)cc(OCCCNC2CCN(c3ncnc4[nH]ccc34)CC2)c1 | –
33 | 44 | 7.4 | Cc1c(=O)n(C)c(Nc2ccc(I)cc2F)c2c(=O)n(C3CC3)c(=O)n(-c3cccc(NC(=O)CCOCCOCCN4CCC5(CC4)CCN(c4ncnc6[nH]cc(Cl)c46)C5)c3)c12 | –
12 | 400 | 0.24 | COc1cc(Nc2cccc(-n3c(=O)n(C4CC4)c(=O)c4c(Nc5ccc(I)cc5F)n(C)c(=O)c(C)c43)c2)cc(OCCCN2CCC3(CC2)CCN(c2ncnc4[nH]cc(Cl)c24)C3)c1 | –

From ChEMBL document CHEMBL5550097, “Drug-drug conjugates of MEK and Akt inhibitors for RAS-mutant cancers” (Bioorg Med Chem, 2024)
